# Experimental data: patent US20220339257A1, “METHODS TO INCREASE THE SENSITIVITY AND REVERSING THE RESISTANCE TO DRUGS” (Biomarker Strategies, LLC, priority 2019, published 2022)
# What was measured:
# Format in all cases: cell-based
# [1] = tested on: RPMI-1975; assay: HoPI live cell staining; conditions: 24 hours
# Description: (§1) A double stain of Hoechst 33342 and propidium iodide allows for the determination of cell viability with high specificity and low background noise, as compared to trypan blue staining. Hoechst 33342 is a cell permeable blue fluorescent nuclear stain which will stain all cell types. Propidium iodide is a cell impermeable red fluorescent nuclear stain that will only bind to the nuclei of cells with compromised membranes (dead cells). The staining can be performed rapidly on live cell suspensions within 15 minutes. 25 uL of 4× Hoechst 33342 Solution (40 ug/mL) and 25 uL of 4×Propidium Iodide Solution are added to 50 uL of cell suspension. The suspension was gently mixed 10 times and 50 uL was immediately transferred to a microfluidic cell counting chip. A 365 nm LED was used to excite both Hoechst 33342 and propidium iodide. Images of the cells were captured using a 10× objective lens on an Olympus microscope using a Canon EOS 6D camera using an ISO of 800 and an exposure of 2 seconds; both JPEG and RAW images were saved for analysis. The blue channel was used to measure the total number of cells and the red channel was used to measure the number of dead cells. Cell counting was performed automatically by the Image Pro software (Media Cybernetics, Inc).
# MTA and EM effects on apoptosis were measured by Hoechst-Propidium Iodide staining (HoPI). For the assay, cells were seeded in 6-well plates at 400K cells per well, in 2 mL of 10% FBS-containing media and incubated for 24 hours. At 24 hours, a 1 nM to […] range of MTA and/or 1 ng/mL to 1 mg/mL range of EM doses was added and incubated for 24 hours. After 24 hours incubation respective cells' media was collected, added the 1× HBSS wash from the plate in the respective tube. Adherent cells were detached by treating with Accutase for 6 minutes and collected in respective tubes. All samples were centrifuged for 5 minutes at 1200 RPM. […] The area, mean intensity, standard deviation of the mean intensity, minimum intensity, maximum intensity and perimeter were measured for each cellular region in the red channel and also in the blue channel. […]
# [2] = tested on: clinical sample; HS2170 and Calu-6 cells; assay: HoPI assay (Hoechst 33342 and propidium iodide); conditions: Osimertinib in combination with EM2
# Description: as §1
# [3] = tested on: EGFR WT sample (H1581); assay: Immunocytochemistry biomarker staining; conditions: erlotinib+EM2 combination; WT EGFR smoker samples; 72 hours
# Experimental: Cells at the seeding density of 10,000 cells per well were plated in 8 chamber slides in complete RPMI culture medium for overnight. After 24h cells were treated with RPMI media without the serum along with selected dose of erlotinib+EM2 and kept for additional 72 hours in incubation condition set at 37° C. in a humidified atmosphere of 95% air and 5% CO2. The chamber slides were rinsed with PBS before performing ICC staining. An Ambay kit (Catalog #10011A) purchased from Ambay Immune Sensors and Controls, LLC (AISC) (MD, USA) was used to perform ICC staining as per the kit instructions and using poly-HRP from Biogenix (CA, USA) was used to enable signal amplification and detection of specific bound antibody targets. A respective isotype antibody control was be kept for each biomarker. Counterstaining was performed before mounting and analysis.
substance,measurement,setting,value
tumor necrosis factor-alpha [EM2],reduction in live cells (HoPI),[1]; GSK458 and TNFa in combination,68%
same,reduction in live cells (HoPI),[1]; single agent,8%
same,cell death (HoPI assay),[2],increase in cell death
same,"cell apoptosis (changes in nuclear staining of Bcl2, ICC)",[3],promoted cell apoptosis
